Reference: patent US20100291584A1, “MICROFLUIDIC IMAGING CYTOMETRY” (The Regents of the University of California, priority 2008, published 2010)

Assays:
U87 cells = assay: 2-NBDG glucose analog uptake on chip; assay type: cell-based, human; conditions: 20 min incubation in HBSS
Experimental: (§1) To monitor glucose uptake in U87 cells, a fluorescent deoxyglucose (2-[N-(7-nitrobenz-2-oxa-1,3-diaxol-4-yl)amino]-2-deoxyglucose; 2-NBDG)^72,73 was used and monitored the 2-NBDG uptake by U87 and U87-PTEN cells (FIG. 6). After cells were loaded into a chip, culture medium was washed with Hanks' balanced salt solution (HBSS) with CaCl2. Then, 2-NBDG in HBSS was loaded into a cell chamber and incubated for 20 min in an incubator.

U87-PTEN cells = assay: 2-NBDG glucose analog uptake on chip; assay type: cell-based, human; conditions: 20 min incubation in HBSS
Experimental: as §1

mTOR = mTOR (Homo sapiens, UniProt P42345+P62942); conditions: glioblastoma patients
[1] = test system: recurrent malignant gliomas; assay: Clinical trial of Avastin (in combination with CPT-11) in patients with recurrent malignant gliomas; assay type: in vivo, human
From the text: The obvious clinical efficacy of avastin will most certainly change the standard of care for malignant glioma patients. […] We will address the following questions: 1) does increased vascularity predispose towards clinical response to avastin (this will be done in collaboration with Dr. Luisa Iruela-Arispe, a noted expert in angiogenesis at UCLA); 2) are the downstream signaling pathways regulated by VEGF reactivated during response and by what mechanism. Are tumors which are driven by key pathways that promote VEGF expression (i.e. EGFR/PI3K signaling) more sensitive to avastin? In addition to testing lese specific hypotheses, we will apply global screening strategies. These include array CGH to detect chromosomal regions of interest associated with sensitivity and resistance (will be done at MSKCC by Dr. Mellinghoff) and integrated with global gene expression data (done both at UCLA and at MSKCC), in addition, through our NanoSystems Biology Cancer Center, we have begun collaboration with Dr. Lee Hood to use surface Plasmon resonance to facilitate the quantitative detection of thousands of proteins in a serum samples. This will enable us to identify protein signatures associated with sensitivity and acquired resistance.

With O=[N+]([O-])c1ccc(N[C@H]2C(O)O[C@H](CO)[C@@H](O)[C@@H]2O)c2nonc12 (stereo partly drawn) [2-NBDG, 2-[N-(7-nitrobenz-2-oxa-1,3-diaxol-4-yl)amino]-2-deoxyglucose] the “fluorescent signal of 2-NBDG uptake” value (U87 cells) was “signals of 2-NBDG were observed” and the “fluorescent signal of 2-NBDG uptake” value (U87-PTEN cells) was “could not be detected”.

In the case of CO[C@H]1C[C@@H]2CC[C@@H](C)[C@@](O)(O2)C(=O)C(=O)N2CCCC[C@H]2C(=O)O[C@H]([C@H](C)C[C@@H]2CC[C@@H](O)[C@H](OC)C2)CC(=O)[C@H](C)/C=C(\C)[C@@H](O)[C@@H](OC)C(=O)[C@H](C)C[C@H](C)/C=C/C=C/C=C/1C [rapamycin], the “rapamycin level in tumor tissue in vivo” value (mTOR) is reported as “present in potentially therapeutic levels” and the “extent of mTOR pathway inhibition” value (mTOR; in vivo, variable between patients) is reported as 10%-80%.

“Avastin: VEGF inhibitor, given in combination with CPT-11” was tested, and the “median time to tumor progression” value ([1]; Avastin with CPT-11, 95% CI=122-272, comparator median 56 days) was 209 days and the median overall survival ([1]; Avastin with CPT-11, 95% CI=251-424, comparator median 184 days) was 340 days.
